# From publication PMC8800111 (The Journal of Biological Chemistry, 2021)
# Key:
# Format in all cases: cell-based
# [1] = target: proteins of U3A human fibrosarcoma cells (4462 proteins detected) (Homo sapiens, UniProt Q9UQ80); conditions: protein PA2G4, U3A cells
# [2] = target: proteins of U3A human fibrosarcoma cells (4462 proteins detected) (Homo sapiens, UniProt P13861); conditions: protein PRKAR2A; soluble abundance after heat, U3A cells
# [3] = target: proteins of U3A human fibrosarcoma cells (4462 proteins detected) (Homo sapiens, UniProt P23396); conditions: protein RPS3; soluble abundance after heat, U3A cells
# [4] = target: proteins of U3A human fibrosarcoma cells (4462 proteins detected) (Homo sapiens, UniProt Q15468); conditions: protein STIL; U3A, 10 μM, 2 h
# [5] = target: proteins of U3A human fibrosarcoma cells (4462 proteins detected) (Homo sapiens, UniProt Q96BP2); conditions: protein CHCHD1; soluble abundance after heat, U3A cells
# [6] = target: proteins of U3A human fibrosarcoma cells (4462 proteins detected) (Homo sapiens, UniProt Q14161); conditions: protein GIT2; soluble abundance after heat, U3A cells
# [7] = target: proteins of U3A human fibrosarcoma cells (4462 proteins detected) (Homo sapiens, UniProt Q92572); conditions: protein AP3S1; U3A cells
# [8] = target: proteins of U3A human fibrosarcoma cells (4462 proteins detected) (Homo sapiens, UniProt O14964); conditions: protein HGS; U3A cells
# [9] = target: proteins of U3A human fibrosarcoma cells (4462 proteins detected) (Homo sapiens, UniProt O75886); conditions: protein STAM2; U3A cells
# [10] = target: proteins of U3A human fibrosarcoma cells (4462 proteins detected) (Homo sapiens, UniProt P51946); conditions: protein CCNH; U3A cells
# [11] = target: proteins of U3A human fibrosarcoma cells (4462 proteins detected) (Homo sapiens, UniProt Q9Y592); conditions: protein CEP83; U3A, 10 μM, 2 h
# [12] = target: proteins of U3A human fibrosarcoma cells (4462 proteins detected) (Homo sapiens, UniProt O14737); conditions: protein PDCD5, U3A cells
# [13] = target: proteins of U3A human fibrosarcoma cells (4462 proteins detected) (Homo sapiens, UniProt Q9NPD8); conditions: protein UBE2T; soluble abundance after heat, U3A cells
# [14] = target: proteins of U3A human fibrosarcoma cells (4462 proteins detected) (Homo sapiens, UniProt P49459); conditions: protein UBE2A, U3A cells
# [15] = target: proteins of U3A human fibrosarcoma cells (4462 proteins detected) (Homo sapiens, UniProt P30519); conditions: protein HMOX2; U3A, 10 μM, 2 h
# [16] = target: proteins of U3A human fibrosarcoma cells (4462 proteins detected) (Homo sapiens, UniProt Q9UN37); conditions: protein VPS4A; U3A cells
# [17] = target: proteins of U3A human fibrosarcoma cells (4462 proteins detected) (Homo sapiens, UniProt Q15428); conditions: protein SF3A2; U3A cells
# [18] = target: proteins of U3A human fibrosarcoma cells (4462 proteins detected) (Homo sapiens, UniProt Q96FF9); conditions: protein CDCA5; U3A cells
# [19] = target: proteins of U3A human fibrosarcoma cells (4462 proteins detected) (Homo sapiens, UniProt Q8IY18); conditions: protein SMC5; U3A, 10 μM, 2 h
# [20] = target: proteins of U3A human fibrosarcoma cells (4462 proteins detected) (Homo sapiens, UniProt Q8IVD9); conditions: protein NUDCD3; soluble abundance after heat, U3A cells
# [21] = target: proteins of U3A human fibrosarcoma cells (4462 proteins detected) (Homo sapiens, UniProt Q9Y2K1); conditions: protein ZBTB1; U3A cells
# [22] = target: proteins of U3A human fibrosarcoma cells (4462 proteins detected) (Homo sapiens, UniProt O00299); conditions: protein CLIC1, U3A cells
# [23] = target: proteins of U3A human fibrosarcoma cells (4462 proteins detected) (Homo sapiens, UniProt Q6AI12); conditions: protein ANKRD40, U3A cells
# [24] = target: proteins of U3A human fibrosarcoma cells (4462 proteins detected) (Homo sapiens, UniProt Q96Q89); conditions: protein KIF20B; U3A cells
# [25] = target: proteins of U3A human fibrosarcoma cells (4462 proteins detected) (Homo sapiens, UniProt Q9UHL4); conditions: protein DPP7; U3A cells
# [26] = target: proteins of U3A human fibrosarcoma cells (4462 proteins detected) (Homo sapiens, UniProt P23469); conditions: protein PTPRE; soluble abundance after heat, U3A cells
# [27] = target: proteins of U3A human fibrosarcoma cells (4462 proteins detected) (Homo sapiens, UniProt Q9UJ41); conditions: protein RABGEF1; U3A cells
# [28] = target: proteins of U3A human fibrosarcoma cells (4462 proteins detected) (Homo sapiens, UniProt Q9H7Z7); conditions: protein PTGES2, U3A cells
# [29] = target: proteins of U3A human fibrosarcoma cells (4462 proteins detected) (Homo sapiens, UniProt Q16658); conditions: protein FSCN1, U3A cells
# [30] = target: proteins of U3A human fibrosarcoma cells (4462 proteins detected) (Homo sapiens, UniProt Q9NP64); conditions: protein ZCCHC17; soluble abundance after heat, U3A cells
# Sequence of proteins of U3A human fibrosarcoma cells (4462 proteins detected) (Homo sapiens, UniProt P49459) (P49459 whole entry): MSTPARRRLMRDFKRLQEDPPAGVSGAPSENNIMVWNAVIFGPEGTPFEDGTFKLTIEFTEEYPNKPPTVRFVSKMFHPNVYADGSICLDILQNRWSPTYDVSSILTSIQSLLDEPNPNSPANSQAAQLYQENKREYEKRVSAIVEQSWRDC
# Sequence of proteins of U3A human fibrosarcoma cells (4462 proteins detected) (Homo sapiens, UniProt Q14161) (Q14161 whole entry): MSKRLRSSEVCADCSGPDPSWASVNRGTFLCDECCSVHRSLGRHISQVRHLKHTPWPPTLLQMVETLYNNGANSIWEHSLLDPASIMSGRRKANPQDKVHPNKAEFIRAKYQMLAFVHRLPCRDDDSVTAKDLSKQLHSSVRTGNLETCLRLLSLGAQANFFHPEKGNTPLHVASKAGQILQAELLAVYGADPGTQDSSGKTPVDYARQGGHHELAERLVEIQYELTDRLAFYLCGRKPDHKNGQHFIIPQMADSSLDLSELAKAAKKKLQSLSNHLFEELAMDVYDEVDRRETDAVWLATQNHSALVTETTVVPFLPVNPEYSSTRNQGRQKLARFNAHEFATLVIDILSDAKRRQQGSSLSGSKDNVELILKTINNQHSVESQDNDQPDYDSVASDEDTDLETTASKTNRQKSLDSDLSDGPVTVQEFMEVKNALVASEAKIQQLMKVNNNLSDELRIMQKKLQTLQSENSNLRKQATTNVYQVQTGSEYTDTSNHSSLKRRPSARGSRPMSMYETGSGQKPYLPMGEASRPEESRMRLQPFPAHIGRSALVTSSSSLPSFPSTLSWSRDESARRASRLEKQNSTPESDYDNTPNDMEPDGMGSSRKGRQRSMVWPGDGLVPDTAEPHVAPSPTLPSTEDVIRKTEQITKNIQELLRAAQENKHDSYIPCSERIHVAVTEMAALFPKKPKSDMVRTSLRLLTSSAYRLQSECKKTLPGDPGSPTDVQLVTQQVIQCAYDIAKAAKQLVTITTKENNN
# Sequence of proteins of U3A human fibrosarcoma cells (4462 proteins detected) (Homo sapiens, UniProt Q9UN37) (Q9UN37 whole entry): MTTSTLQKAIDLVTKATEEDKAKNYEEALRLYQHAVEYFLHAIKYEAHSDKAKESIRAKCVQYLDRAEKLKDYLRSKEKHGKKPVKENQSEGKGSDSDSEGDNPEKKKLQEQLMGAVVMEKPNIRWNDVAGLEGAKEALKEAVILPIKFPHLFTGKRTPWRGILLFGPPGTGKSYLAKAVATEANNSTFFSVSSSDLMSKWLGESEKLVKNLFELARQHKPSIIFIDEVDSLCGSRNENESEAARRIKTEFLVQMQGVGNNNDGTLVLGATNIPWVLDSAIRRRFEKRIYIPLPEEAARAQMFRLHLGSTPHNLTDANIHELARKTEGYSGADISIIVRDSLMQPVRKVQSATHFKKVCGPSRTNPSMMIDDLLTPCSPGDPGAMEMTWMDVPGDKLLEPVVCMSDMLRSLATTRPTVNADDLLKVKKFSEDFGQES
# Sequence of proteins of U3A human fibrosarcoma cells (4462 proteins detected) (Homo sapiens, UniProt Q15428) (Q15428 whole entry): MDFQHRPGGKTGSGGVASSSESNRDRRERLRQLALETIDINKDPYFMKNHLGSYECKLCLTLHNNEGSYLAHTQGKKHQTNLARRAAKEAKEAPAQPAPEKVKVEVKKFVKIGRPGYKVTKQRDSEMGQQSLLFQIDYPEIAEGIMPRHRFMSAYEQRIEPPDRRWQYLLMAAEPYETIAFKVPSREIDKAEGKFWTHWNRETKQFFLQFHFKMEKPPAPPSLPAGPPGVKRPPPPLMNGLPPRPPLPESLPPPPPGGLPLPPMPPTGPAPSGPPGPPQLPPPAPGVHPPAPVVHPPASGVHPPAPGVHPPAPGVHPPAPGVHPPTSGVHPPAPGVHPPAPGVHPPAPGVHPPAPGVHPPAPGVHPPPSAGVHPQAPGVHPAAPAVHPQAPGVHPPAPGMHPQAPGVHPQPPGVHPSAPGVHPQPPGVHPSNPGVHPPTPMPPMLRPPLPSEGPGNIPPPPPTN
# Sequence of proteins of U3A human fibrosarcoma cells (4462 proteins detected) (Homo sapiens, UniProt Q9NPD8) (Q9NPD8 whole entry): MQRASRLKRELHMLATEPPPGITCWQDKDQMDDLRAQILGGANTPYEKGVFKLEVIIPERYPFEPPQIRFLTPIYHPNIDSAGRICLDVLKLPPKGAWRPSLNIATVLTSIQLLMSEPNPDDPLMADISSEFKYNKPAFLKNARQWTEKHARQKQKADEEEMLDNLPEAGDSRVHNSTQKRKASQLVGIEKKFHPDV
# Sequence of proteins of U3A human fibrosarcoma cells (4462 proteins detected) (Homo sapiens, UniProt Q9Y2K1) (Q9Y2K1 whole entry): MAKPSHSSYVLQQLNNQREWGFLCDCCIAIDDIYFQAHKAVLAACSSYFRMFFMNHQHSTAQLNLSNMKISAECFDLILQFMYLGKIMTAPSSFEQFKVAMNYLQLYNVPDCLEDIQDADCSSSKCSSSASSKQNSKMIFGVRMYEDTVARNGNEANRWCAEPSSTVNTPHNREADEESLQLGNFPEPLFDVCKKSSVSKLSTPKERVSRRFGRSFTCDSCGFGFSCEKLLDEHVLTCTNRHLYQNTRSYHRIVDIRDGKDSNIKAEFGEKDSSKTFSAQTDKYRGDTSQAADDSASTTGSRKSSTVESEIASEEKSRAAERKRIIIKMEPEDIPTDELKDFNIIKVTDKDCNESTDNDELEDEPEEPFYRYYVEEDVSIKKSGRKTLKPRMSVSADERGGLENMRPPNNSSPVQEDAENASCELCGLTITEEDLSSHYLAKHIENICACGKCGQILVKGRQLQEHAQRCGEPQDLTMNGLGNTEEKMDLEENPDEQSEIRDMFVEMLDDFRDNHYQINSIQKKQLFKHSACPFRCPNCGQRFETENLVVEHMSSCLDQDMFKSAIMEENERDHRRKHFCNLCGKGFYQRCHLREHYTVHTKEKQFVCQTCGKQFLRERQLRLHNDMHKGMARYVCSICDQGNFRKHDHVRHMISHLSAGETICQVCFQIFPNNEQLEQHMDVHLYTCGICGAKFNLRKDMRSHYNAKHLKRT
# Sequence of proteins of U3A human fibrosarcoma cells (4462 proteins detected) (Homo sapiens, UniProt P13861) (P13861 whole entry): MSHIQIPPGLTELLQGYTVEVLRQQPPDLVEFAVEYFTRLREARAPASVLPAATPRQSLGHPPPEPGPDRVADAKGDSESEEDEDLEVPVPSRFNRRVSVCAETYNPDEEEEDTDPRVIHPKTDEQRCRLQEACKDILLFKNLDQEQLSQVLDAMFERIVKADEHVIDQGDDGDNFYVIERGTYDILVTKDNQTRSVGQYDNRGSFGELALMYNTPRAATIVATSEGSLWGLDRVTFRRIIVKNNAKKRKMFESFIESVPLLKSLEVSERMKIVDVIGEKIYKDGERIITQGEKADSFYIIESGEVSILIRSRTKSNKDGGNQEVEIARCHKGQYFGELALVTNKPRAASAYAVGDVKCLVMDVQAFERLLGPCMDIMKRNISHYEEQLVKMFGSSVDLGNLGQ
# Sequence of proteins of U3A human fibrosarcoma cells (4462 proteins detected) (Homo sapiens, UniProt O14964) (O14964 whole entry): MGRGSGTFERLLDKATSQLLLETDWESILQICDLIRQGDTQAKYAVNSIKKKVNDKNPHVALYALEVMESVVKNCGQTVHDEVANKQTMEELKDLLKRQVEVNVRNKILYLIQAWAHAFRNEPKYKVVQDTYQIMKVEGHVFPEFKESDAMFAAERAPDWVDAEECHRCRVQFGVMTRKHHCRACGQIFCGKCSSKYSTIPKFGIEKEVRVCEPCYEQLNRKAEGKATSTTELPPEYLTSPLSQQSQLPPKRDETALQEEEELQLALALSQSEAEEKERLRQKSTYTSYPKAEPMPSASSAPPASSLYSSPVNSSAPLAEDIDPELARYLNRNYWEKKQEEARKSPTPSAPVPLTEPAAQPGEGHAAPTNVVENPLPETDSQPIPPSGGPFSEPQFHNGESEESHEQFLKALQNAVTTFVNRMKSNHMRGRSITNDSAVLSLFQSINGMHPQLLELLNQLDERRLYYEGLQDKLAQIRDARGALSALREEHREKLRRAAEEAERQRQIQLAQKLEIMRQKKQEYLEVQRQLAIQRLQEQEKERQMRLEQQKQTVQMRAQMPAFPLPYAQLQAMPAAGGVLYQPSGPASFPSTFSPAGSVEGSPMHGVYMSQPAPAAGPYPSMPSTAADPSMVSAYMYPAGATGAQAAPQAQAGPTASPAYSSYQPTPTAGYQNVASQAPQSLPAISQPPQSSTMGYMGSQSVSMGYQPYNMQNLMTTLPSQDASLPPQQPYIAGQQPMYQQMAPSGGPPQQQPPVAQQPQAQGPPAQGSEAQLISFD
# Sequence of proteins of U3A human fibrosarcoma cells (4462 proteins detected) (Homo sapiens, UniProt Q9UJ41) (Q9UJ41 whole entry): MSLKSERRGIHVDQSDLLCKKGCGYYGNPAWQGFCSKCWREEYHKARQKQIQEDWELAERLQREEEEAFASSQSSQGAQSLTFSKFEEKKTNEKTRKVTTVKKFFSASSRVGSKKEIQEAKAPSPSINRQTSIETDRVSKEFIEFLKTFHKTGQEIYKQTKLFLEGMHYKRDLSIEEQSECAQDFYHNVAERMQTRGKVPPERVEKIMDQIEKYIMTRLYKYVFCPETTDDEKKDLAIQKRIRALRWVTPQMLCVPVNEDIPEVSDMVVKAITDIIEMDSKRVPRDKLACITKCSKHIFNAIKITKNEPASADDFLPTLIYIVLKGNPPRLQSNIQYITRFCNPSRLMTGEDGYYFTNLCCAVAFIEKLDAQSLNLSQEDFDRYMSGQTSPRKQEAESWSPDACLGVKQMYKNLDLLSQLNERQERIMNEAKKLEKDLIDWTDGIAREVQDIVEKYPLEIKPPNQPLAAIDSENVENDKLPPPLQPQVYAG
# Sequence of proteins of U3A human fibrosarcoma cells (4462 proteins detected) (Homo sapiens, UniProt Q92572) (Q92572 whole entry): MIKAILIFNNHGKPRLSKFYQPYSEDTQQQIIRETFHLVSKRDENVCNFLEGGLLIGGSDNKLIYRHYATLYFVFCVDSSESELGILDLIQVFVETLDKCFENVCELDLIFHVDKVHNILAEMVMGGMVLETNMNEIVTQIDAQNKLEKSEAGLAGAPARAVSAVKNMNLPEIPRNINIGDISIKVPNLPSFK
# Sequence of proteins of U3A human fibrosarcoma cells (4462 proteins detected) (Homo sapiens, UniProt Q6AI12) (Q6AI12 whole entry): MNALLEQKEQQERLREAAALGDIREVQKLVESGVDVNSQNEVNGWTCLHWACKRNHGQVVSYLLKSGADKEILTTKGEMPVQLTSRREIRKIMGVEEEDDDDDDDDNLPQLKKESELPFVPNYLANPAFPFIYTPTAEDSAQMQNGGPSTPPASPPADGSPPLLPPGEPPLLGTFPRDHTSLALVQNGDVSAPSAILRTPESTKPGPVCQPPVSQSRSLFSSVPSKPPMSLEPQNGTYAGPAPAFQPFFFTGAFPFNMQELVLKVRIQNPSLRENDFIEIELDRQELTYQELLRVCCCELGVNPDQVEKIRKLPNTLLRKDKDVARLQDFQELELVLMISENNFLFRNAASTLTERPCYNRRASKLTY
structure (smiles),measurement,setting,value
CCc1nc(N)nc(N)c1-c1ccc(Cl)cc1 [pyrimethamine],Log2 (PYR/DMSO),[1],-0.03
same,Log2 (PYR/DMSO),[2],0.14
same,Log2 (PYR/DMSO),[3],0.13
same,"Log2 (PYR/DMSO), STIL",[4],0.35
same,Log2 (PYR/DMSO),[5],0.15
same,Log2 (PYR/DMSO),[6],0.14
same,Log2 (PYR/DMSO),[7],0.18
same,Log2 (PYR/DMSO),[8],0.16
same,Log2 (PYR/DMSO),[9],0.19
same,Log2 (PYR/DMSO),[10],0.16
same,"Log2 (PYR/DMSO), CEP83",[11],-0.43
same,Log2 (PYR/DMSO),[12],-0.04
same,Log2 (PYR/DMSO),[13],0.13
same,Log2 (PYR/DMSO),[14],-0.04
same,"Log2 (PYR/DMSO), HMOX2",[15],0.25
same,Log2 (PYR/DMSO),[16],0.19
same,Log2 (PYR/DMSO),[17],0.20
same,Log2 (PYR/DMSO),[18],0.19
same,"Log2 (PYR/DMSO), SMC5",[19],0.30
same,Log2 (PYR/DMSO),[20],0.15
same,Log2 (PYR/DMSO),[21],0.22
same,Log2 (PYR/DMSO),[22],-0.03
same,Log2 (PYR/DMSO),[23],-0.04
same,Log2 (PYR/DMSO),[24],0.23
same,Log2 (PYR/DMSO),[25],0.22
same,Log2 (PYR/DMSO),[26],0.13
same,Log2 (PYR/DMSO),[27],0.20
same,Log2 (PYR/DMSO),[28],-0.04
same,Log2 (PYR/DMSO),[29],-0.04
same,Log2 (PYR/DMSO),[30],0.15
